Laboratory results published in patent publication US11155597B2, “Relaxin1 derived peptides for use in immunotherapy” (Immatics Biotechnologies GmbH, priority 2015, dated 2021).

Tested on: CD8+ T cells of healthy HLA-A*02+ donors
Assay: In vitro immunogenicity: T-cell priming with aAPCs loaded with peptide/MHC and anti-CD28, pMHC multimer readout
Type: cell-based, human
Settings: for Wells positive [%]: HLA-A*02 restricted peptides, Table 6B
Description: In order to obtain information regarding the immunogenicity of the TUMAPs of the present invention, the inventors performed investigations using an in vitro T-cell priming assay based on repeated stimulations of CD8+ T cells with artificial antigen presenting cells (aAPCs) loaded with peptide/MHC complexes and anti-CD28 antibody.
In order to perform in vitro stimulations by artificial antigen presenting cells loaded with peptide-MHC complex (pMHC) and anti-CD28 antibody, the inventors first isolated CD8+ T cells from fresh HLA-A*02 leukapheresis products via positive selection using CD8 microbeads (Miltenyi Biotec, Bergisch-Gladbach, Germany) of healthy donors obtained from the University clinics Mannheim, Germany, after informed consent. PBMCs and isolated CD8+ lymphocytes were incubated in T-cell medium (TCM) until use consisting of RPMI-Glutamax (Invitrogen, Karlsruhe, Germany) supplemented with 10% heat inactivated human AB serum (PAN-Biotech, Aidenbach, Germany), 100 U/ml Penicillin/100 μg/ml Streptomycin (Cambrex, Cologne, Germany), 1 mM sodium pyruvate (CC Pro, Oberdorla, Germany), 20 μg/ml Gentamycin (Cambrex). 2.5 ng/ml IL-7 (PromoCell, Heidelberg, Germany) and 10 U/ml IL-2 (Novartis Pharma, Nürnberg, Germany) were also added to the TCM at this step. Generation of pMHC/anti-CD28 coated beads, T-cell stimulations and readout was performed in a highly defined in vitro system using four different pMHC molecules per stimulation condition and 8 different pMHC molecules per readout condition.
The purified co-stimulatory mouse IgG2a anti human CD28 Ab 9.3 (Jung et al., 1987) was chemically biotinylated using Sulfo-N-hydroxysuccinimidobiotin as recommended by the manufacturer (Perbio, Bonn, Germany). Beads used were 5.6 μm diameter streptavidin coated polystyrene particles (Bangs Laboratories, Illinois, USA).
pMHC used for positive and negative control stimulations were A*0201/MLA-001 (peptide […] (SEQ ID NO. 289) from modified Melan-A/MART-1) and A*0201/DDX5-001 ([…] from DDX5, SEQ ID NO. 290), respectively.
800.000 beads/200 μl were coated in 96-well plates in the presence of 4×12.5 ng different biotin-pMHC, washed and 600 ng biotin anti-CD28 were added subsequently in a volume of 200 μl. Stimulations were initiated in 96-well plates by co-incubating 1×10^6 CD8+ T cells with 2×10^5 washed coated beads in 200 μl TCM supplemented with 5 ng/ml IL-12 (PromoCell) for 3 days at 37° C. Half of the medium was then exchanged by fresh TCM supplemented with 80 U/ml IL-2 and incubating was continued for 4 days at 37° C. This stimulation cycle was performed for a total of three times. For the pMHC multimer readout using 8 different pMHC molecules per condition, a two-dimensional combinatorial coding approach was used as previously described (Andersen et al., 2012) with minor modifications encompassing coupling to 5 different fluorochromes. Finally, multimeric analyses were performed by staining the cells with Live/dead near IR dye (Invitrogen, Karlsruhe, Germany), CD8-FITC antibody clone SK1 (BD, Heidelberg, Germany) and fluorescent pMHC multimers. For analysis, a BD LSRII SORP cytometer equipped with appropriate lasers and filters was used. Peptide specific cells were calculated as percentage of total CD8+ cells. Evaluation of multimeric analysis was done using the FlowJo software (Tree Star, Oregon, USA). In vitro priming of specific multimer+CD8+ lymphocytes was detected by comparing to negative control stimulations.
Exemplary flow cytometry results after TUMAP-specific multimer staining for peptide of the invention are shown in FIG. 3 together with corresponding negative controls.

4 (VLFGELPAL; listed as Homo sapiens) [compound 4]
Wells positive [%]: + (<20% = +)

9 (SLITGQDLLSV; listed as Homo sapiens) [compound 9]
Wells positive [%]: + (<20% = +)

14 (YTFSGDVQL; listed as Homo sapiens) [compound 14]
Wells positive [%]: + (<20% = +)

17 (GLLPSAESIKL; listed as Homo sapiens) [compound 17]
Wells positive [%]: + (<20% = +)

27 (GLLGKVTSV; listed as Homo sapiens) [compound 27]
Wells positive [%]: + (<20% = +)

29 (KMISAIPTL; listed as Homo sapiens) [compound 29]
Wells positive [%]: + (<20% = +)

35 (VIIKGLEEI; listed as Homo sapiens) [compound 35]
Wells positive [%]: + (<20% = +)

50 (ILLSVLHQL; listed as Homo sapiens) [compound 50]
Wells positive [%]: + (<20% = +)

66 (AMFPDTIPRV; listed as Homo sapiens) [compound 66]
Wells positive [%]: + (<20% = +)

77 (ALYGNVQQV; listed as Homo sapiens) [compound 77]
Wells positive [%]: + (<20% = +)

89 (SLAETIFIV; listed as Homo sapiens) [compound 89]
Wells positive [%]: + (<20% = +)

97 (KLFEKSTGL; listed as Homo sapiens) [compound 97]
Wells positive [%]: + (<20% = +)

101 (SLLEVNEASSV; listed as Homo sapiens) [compound 101]
Wells positive [%]: + (<20% = +)

102 (GLYPVTLVGV; listed as Homo sapiens) [compound 102]
Wells positive [%]: + (<20% = +)

121 (ALYVQAPTV; listed as Homo sapiens) [compound 121]
Wells positive [%]: + (<20% = +)

157 (ILQDGQFLV; listed as Homo sapiens) [compound 157]
Wells positive [%]: + (<20% = +)

233 (SLFESLEYL; listed as Homo sapiens) [compound 233]
Wells positive [%]: + (<20% = +)

236 (KMSELQTYV; listed as Homo sapiens) [compound 236]
Wells positive [%]: + (<20% = +)

242 (KLQEEIPVL; listed as Homo sapiens) [compound 242]
Wells positive [%]: + (<20% = +)

246 (ALAGIVTNV; listed as Homo sapiens) [compound 246]
Wells positive [%]: + (<20% = +)

254 (ALGDKFLLRV; listed as Homo sapiens) [compound 254]
Wells positive [%]: + (<20% = +)

255 (FLMKNSDLYGA; listed as Homo sapiens) [compound 255]
Wells positive [%]: + (<20% = +)

257 (KLIDHQGLYL; listed as Homo sapiens) [compound 257]
Wells positive [%]: + (<20% = +)

260 (ALNESLVEC; listed as Homo sapiens) [compound 260]
Wells positive [%]: + (<20% = +)

263 (SIIEYLPTL; listed as Homo sapiens) [compound 263]
Wells positive [%]: + (<20% = +)

264 (TLHDQVHLL; listed as Homo sapiens) [compound 264]
Wells positive [%]: + (<20% = +)

267 (YLLDMPLWYL; listed as Homo sapiens) [compound 267]
Wells positive [%]: + (<20% = +)

287 (KIQEILTQV; listed as Homo sapiens) [compound 287]
in vitro immunogenicity: wells (percentage of positive wells, Table 6A): + (<20% = +)

288 (SLYKGLLSV; listed as Homo sapiens) [compound 288]
in vitro immunogenicity: donors (percentage of positive donors, Table 6A): ++++ (> = 70% = ++++)
